According to ChEMBL document CHEMBL4602719, “Discovery of Potent, Selective, and Orally Bioavailable Inhibitors of USP7 with In Vivo Antitumor Activity” (J Med Chem, 2020):

Tests used:
[1] = molecular target: T1, Ubiquitin carboxyl-terminal hydrolase 47 (Homo sapiens, UniProt Q96K76); test: Inhibition of USP47 (unknown origin) by biochemical assay
T1 sequence (Q96K76 whole entry): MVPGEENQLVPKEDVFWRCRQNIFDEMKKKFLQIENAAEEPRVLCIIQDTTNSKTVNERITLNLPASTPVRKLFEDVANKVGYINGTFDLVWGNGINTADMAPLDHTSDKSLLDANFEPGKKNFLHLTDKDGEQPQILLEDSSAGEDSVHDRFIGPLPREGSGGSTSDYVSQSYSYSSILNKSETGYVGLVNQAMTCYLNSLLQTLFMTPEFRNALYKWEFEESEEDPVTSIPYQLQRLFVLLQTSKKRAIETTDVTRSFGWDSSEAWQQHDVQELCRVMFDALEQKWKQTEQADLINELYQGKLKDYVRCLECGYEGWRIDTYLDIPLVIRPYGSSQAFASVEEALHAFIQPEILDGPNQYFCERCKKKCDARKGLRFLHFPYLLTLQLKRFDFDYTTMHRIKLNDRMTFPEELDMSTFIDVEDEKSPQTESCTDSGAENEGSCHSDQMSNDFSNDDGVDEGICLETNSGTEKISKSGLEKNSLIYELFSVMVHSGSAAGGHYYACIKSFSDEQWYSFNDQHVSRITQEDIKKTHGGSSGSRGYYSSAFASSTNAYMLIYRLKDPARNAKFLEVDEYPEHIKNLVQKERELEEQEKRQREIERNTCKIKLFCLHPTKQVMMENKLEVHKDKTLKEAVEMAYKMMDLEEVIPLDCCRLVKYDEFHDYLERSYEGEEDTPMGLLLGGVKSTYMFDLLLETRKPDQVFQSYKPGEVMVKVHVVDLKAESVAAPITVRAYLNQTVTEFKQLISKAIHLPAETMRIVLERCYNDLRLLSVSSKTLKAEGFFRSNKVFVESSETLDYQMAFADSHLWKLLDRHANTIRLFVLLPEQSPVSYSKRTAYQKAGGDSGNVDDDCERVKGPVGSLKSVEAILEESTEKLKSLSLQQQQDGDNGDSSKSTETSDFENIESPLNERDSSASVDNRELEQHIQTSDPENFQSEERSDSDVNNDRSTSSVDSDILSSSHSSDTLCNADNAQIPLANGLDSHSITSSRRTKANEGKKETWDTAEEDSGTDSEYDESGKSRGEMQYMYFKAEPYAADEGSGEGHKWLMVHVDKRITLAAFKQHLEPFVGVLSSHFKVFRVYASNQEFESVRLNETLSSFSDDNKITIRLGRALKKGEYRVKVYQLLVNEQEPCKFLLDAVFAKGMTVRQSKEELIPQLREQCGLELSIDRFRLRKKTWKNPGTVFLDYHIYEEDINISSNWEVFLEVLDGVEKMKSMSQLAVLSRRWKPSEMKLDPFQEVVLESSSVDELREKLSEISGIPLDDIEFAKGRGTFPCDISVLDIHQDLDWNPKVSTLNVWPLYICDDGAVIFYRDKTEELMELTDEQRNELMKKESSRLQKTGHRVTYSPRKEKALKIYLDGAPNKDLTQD

[2] = molecular target: T2, Ubiquitin carboxyl-terminal hydrolase 7 (Homo sapiens, UniProt Q93009); test: Inhibition of recombinant full length USP7 (unknown origin) using ubiquintin-rhodamine as substrate preincubated for 30 mins followed by substrate addition measured after 1 hr by fluorescence-based Envision plate reader assay
T2 sequence (Q93009 whole entry): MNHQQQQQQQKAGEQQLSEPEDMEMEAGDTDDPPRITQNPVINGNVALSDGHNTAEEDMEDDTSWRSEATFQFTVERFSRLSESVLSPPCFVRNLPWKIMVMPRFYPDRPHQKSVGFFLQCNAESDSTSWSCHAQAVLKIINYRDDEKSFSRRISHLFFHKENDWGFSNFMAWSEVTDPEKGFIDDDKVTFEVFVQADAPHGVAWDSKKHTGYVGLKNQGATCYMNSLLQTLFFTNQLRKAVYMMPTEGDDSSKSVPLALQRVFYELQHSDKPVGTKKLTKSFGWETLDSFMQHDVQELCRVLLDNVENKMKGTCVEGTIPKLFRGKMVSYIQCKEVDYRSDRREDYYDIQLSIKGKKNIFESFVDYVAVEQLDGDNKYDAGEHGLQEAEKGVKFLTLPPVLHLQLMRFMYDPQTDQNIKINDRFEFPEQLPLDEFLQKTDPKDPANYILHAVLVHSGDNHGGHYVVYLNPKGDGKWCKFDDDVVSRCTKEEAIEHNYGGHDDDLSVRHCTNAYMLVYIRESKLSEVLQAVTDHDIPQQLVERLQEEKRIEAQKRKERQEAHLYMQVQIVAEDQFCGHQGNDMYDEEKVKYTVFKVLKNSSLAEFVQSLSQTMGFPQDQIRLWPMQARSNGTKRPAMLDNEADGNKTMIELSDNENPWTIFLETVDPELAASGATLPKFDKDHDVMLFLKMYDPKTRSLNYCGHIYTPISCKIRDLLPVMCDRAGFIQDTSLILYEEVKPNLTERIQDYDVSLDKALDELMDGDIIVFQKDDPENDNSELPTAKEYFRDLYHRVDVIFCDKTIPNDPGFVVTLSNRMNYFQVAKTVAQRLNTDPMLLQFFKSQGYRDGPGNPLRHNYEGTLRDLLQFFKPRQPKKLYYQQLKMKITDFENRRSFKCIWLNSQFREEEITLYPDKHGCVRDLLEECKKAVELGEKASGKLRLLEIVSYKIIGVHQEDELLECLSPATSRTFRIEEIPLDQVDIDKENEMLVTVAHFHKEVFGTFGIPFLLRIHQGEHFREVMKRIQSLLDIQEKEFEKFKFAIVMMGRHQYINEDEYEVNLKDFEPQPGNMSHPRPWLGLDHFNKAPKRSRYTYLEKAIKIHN

[3] = Clearance in Sprague-Dawley rat at 0.5 mg/kg, iv; format: ADME, organism-based; details: in vivo
[4] = Stability of compound in rat hepatocytes assessed as parent compound remaining incubated for 60 mins; format: ADME, cell-based, Hepatocyte; details: read-out: Stability
[5] = Stability of compound in human hepatocytes assessed as parent compound remaining incubated for 60 mins; format: ADME, cell-based, Hepatocyte; details: read-out: Stability
[6] = molecular target: T2, Ubiquitin carboxyl-terminal hydrolase 7; test: Inhibition of USP7 in human RKO cells transfected with p53 luciferase reporter vector assessed as increase in p53-dependent luciferase activity measured after 18 hrs by BrightGlo luciferase assay; format: cell-based
[7] = AUC in Sprague-Dawley rat at 2 mg/kg, po; format: ADME, organism-based; details: in vivo
MM1.S = test: Cytotoxicity against human MM1S cells expressing wild type p53 assessed as reduction in cell viability measured after 5 days by CellTiter-Glo assay; format: functional; details: 120 h
[8] = molecular target: T3, Ubiquitin carboxyl-terminal hydrolase 1 (Homo sapiens, UniProt O94782); test: Inhibition of His6-tagged human USP1 expressed in insect Sf21 cells coexpressing untagged UAF1 assessed as cleavage of Ubiquitin-Rhodamine110-glycine to Ubiquitin and Rhodamine110-glycine using Ubiquitin-Rhodamine110-glycine as substrate by fluorescence based analysis
T3 sequence (O94782 whole entry): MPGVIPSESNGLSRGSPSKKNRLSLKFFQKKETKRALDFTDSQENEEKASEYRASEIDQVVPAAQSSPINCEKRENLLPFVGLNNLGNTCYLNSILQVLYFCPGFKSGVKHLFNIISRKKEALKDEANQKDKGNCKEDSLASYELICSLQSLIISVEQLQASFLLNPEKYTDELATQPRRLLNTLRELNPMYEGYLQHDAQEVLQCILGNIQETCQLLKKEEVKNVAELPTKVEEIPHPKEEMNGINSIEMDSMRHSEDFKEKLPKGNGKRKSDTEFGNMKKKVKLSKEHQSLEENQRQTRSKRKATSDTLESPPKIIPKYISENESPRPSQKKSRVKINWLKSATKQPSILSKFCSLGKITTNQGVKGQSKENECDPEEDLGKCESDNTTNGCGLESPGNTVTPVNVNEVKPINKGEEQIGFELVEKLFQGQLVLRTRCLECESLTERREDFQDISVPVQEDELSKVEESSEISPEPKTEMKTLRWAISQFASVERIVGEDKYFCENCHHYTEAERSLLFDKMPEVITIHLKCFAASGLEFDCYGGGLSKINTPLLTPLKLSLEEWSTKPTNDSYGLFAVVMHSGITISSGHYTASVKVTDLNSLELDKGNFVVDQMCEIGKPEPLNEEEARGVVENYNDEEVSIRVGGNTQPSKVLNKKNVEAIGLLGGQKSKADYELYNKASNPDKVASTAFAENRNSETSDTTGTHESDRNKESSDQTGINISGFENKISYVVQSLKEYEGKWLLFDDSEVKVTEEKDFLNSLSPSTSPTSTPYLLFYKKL

SMILES	IC50 [1]	IC50 [2]	EC50 [6]	further results
CC(=O)NCc1cc2nccc(-c3cc(Cl)cc4c3O[C@@H](C(=O)N3CCNCC3)C4)c2s1	> 80000 nM	25 nM		
Cc1cc(Cl)cc(-c2ccnc3cc(CN4C(=O)CCC4=O)sc23)c1O[C@H]1C[C@H](N)C1		3.4 nM	150 nM	
Cc1cc(Cl)cc(-c2ccnc3cc(CN4C(=O)CCC4=O)sc23)c1O[C@@H]1CCNC[C@@H]1C		2.1 nM	150 nM	clearance [3]: 1.17 mL/min/kg; AUC [7]: 860 ng·h/mL
Cn1nc2c(c1[C@H]1Cc3cc(Cl)cc(-c4ccnc5cc(CN6C(=O)CCC6=O)sc45)c3O1)CNCC2		1.1 nM		clearance [3]: 78.3 mL/min/kg; remaining at 1 h [4]: 42%; remaining at 1 h [5]: 63%
Cc1cc(Cl)cc(-c2ccnc3cc(CN4C(=O)C5CC5C4=O)sc23)c1C[C@H]1OCCN[C@@H]1C (mixture of isomers)		1.5 nM	210 nM	CC50 (MM1.S): 310 nM
Cc1cc(Cl)cc(-c2ccnc3cc(CN4C(=O)C5C(C4=O)C5(C)C)sc23)c1OC1CCCNC1 (centres undefined)		2.4 nM	250 nM	
Cc1cc2nccc(-c3cc(Cl)cc4c3O[C@@H](C(=O)N3CCNCC3)C4)c2s1	> 80000 nM	130 nM		IC50 [8]: > 80000 nM
O=C([C@H]1Cc2cc(Cl)cc(-c3ccnc4[nH]ccc34)c2O1)N1CCNCC1	> 80000 nM	450 nM		IC50 [8]: > 80000 nM
O=C(C1Cc2cc(Cl)cc(-c3ccnc4[nH]ccc34)c2O1)N1CCNCC1 (racemic)	> 80000 nM	930 nM		IC50 [8]: > 80000 nM
Cc1cc(Cl)cc(-c2ccnc3cc(CN4C(=O)C5C(C4=O)C5(C)C)sc23)c1NC1CCCNC1 (centres undefined)		0.78 nM	33 nM	
Cc1cc(Cl)cc(-c2ccnc3cc(CN4C(=O)CCC4=O)sc23)c1O[C@H]1CCCNC1		4.6 nM	180 nM	clearance [3]: 81.7 mL/min/kg; AUC [7]: 170 ng·h/mL
O=C([C@H]1Cc2cc(Cl)cc(-c3ccnc4cc(CO)sc34)c2O1)N1CCNCC1	> 40000 nM	43 nM		IC50 [8]: > 40000 nM
Cc1cc(Cl)cc(-c2ccnc3cc(Cn4c(=O)ccn(CC(F)(F)F)c4=O)sc23)c1O[C@@H]1CCNC[C@@H]1C		0.26 nM	42 nM	clearance [3]: 16.7 mL/min/kg; AUC [7]: 52 ng·h/mL
Cc1cc(Cl)cc(-c2ccnc3cc(CN4C(=O)CCC4=O)sc23)c1OCC1(F)CNC1		1.5 nM	320 nM	
O=C([C@H]1Cc2cc(Cl)cc(-c3ccnc4cc(Cn5cnccc5=O)sc34)c2O1)N1CCNCC1	> 5000 nM	27 nM		
Cc1cc(Cl)cc(-c2ccnc3cc(CN4C(=O)C5CC5C4=O)sc23)c1C[C@@H]1CNC[C@@H](C)O1 (mixture of isomers)		0.39 nM	60 nM	CC50 (MM1.S): 120 nM
Cc1cc(Cl)cc(-c2ccnc3cc(CN4C(=O)CCC4=O)sc23)c1CN1CCNCC1		32 nM	1200 nM	
O=C1CCC(=O)N1Cc1cc2nccc(-c3cc(Cl)ccc3O[C@@H]3CNC[C@@H]3F)c2s1		207 nM		
Cc1cc(Cl)cc(-c2ccnc3cc(CN4C(=O)C5C(C4=O)C5(C)C)sc23)c1CC1CCCNC1 (centres undefined)		1.3 nM	130 nM	
Cc1cc(Cl)cc(-c2ccnc3cc(CN4C(=O)CCC4=O)sc23)c1CN1CCNC[C@@H]1C		6.6 nM	280 nM	

Continued by falling IC50 [2], values first:

IC50 [1]	IC50 [2]	EC50 [6]	SMILES	further results
> 40000 nM	90 nM		O=C([C@H]1Cc2cc(Cl)cc(-c3ccnc4ccsc34)c2O1)N1CCNCC1	IC50 [8]: > 40000 nM
> 40000 nM	73 nM		O=C([C@H]1Cc2cc(Cl)cc(-c3ccnc4cc(C5(O)COC5)sc34)c2O1)N1CCNCC1	
> 20000 nM	26 nM		O=C1CCCN1Cc1cc2nccc(-c3cc(Cl)cc4c3O[C@@H](C(=O)N3CCNCC3)C4)c2s1	
	13 nM		O=C1CCC(=O)N1Cc1cc2nccc(-c3cc(Cl)cc4c3O[C@@H](c3ocnc3CN3CCC3)C4)c2s1	remaining at 1 h [4]: 2%; remaining at 1 h [5]: 14%
> 40000 nM	9 nM		O=C([C@H]1Cc2cc(Cl)cc(-c3ccnc4cc(C(O)(CO)CCl)sc34)c2O1)N1CCNCC1 (some centres undefined)	
	8 nM	400 nM	Cc1cc(Cl)cc(-c2ccnc3cc(CN4C(=O)CCC4=O)sc23)c1OC1CCNCC1	clearance [3]: 5.5 mL/min/kg; AUC [7]: 44 ng·h/mL
	1.2 nM	560 nM	Cc1cc(Cl)cc(-c2ccnc3cc(CN4C(=O)CCC4=O)sc23)c1O[C@@H]1CNC[C@@H]1F	clearance [3]: 35 mL/min/kg; AUC [7]: 130 ng·h/mL
	1.1 nM	170 nM	Cc1cc(Cl)cc(-c2ccnc3cc(CN4C(=O)C5CC5C4=O)sc23)c1O[C@@H]1CCNC[C@@H]1C (some centres undefined)	
	0.38 nM		O=C1CCC(=O)N1Cc1cc2nccc(-c3cc(Cl)cc4c3O[C@@H](c3onc5c3CNCC5)C4)c2s1	clearance [3]: 96.7 mL/min/kg; remaining at 1 h [4]: 4%; remaining at 1 h [5]: 26%
> 2000 nM	0.18 nM		O=C([C@H]1Cc2cc(Cl)cc(-c3ccnc4cc(CN5C(=O)CCC5=O)sc34)c2O1)N1CCNCC1	clearance [3]: 192 mL/min/kg; remaining at 1 h [4]: 14%; remaining at 1 h [5]: 37%
